“Also recorded” adds a separate entry of the source. One block for each sequence: values may come before it. Where no end group is shown, it is not given here. [ ]: non-standard residue; d: D form.
How the values were obtained:
[1] = Heparin binding activity, Hi Trap Heparin HP column, NaCl step elution; conditions: for fraction number: 500 μl fractions of heparin column elution; for [NaCl] for elution: heparin column
Source text: Liquid chromatography was used to determine the relative levels of heparin binding activity of the individual heparin binding domains and of the anti-angiogenic miniproteins that contains them. In this assay, the strength of the heparin binding activity is proportional to the amount of NaCl that is required to elute the peptide bound to the heparin column. Peptides with low binding activity are eluted with lower NaCl concentration, whereas higher concentrations of NaCl are required for peptides with higher binding activity.
Hi Trap Heparin HP column (1 ml, Amersham Biosciences) was equilibrated with 10 column volumes (CV) of equilibration (EQ) buffer=10 mM NaH2PO4 pH 7. All buffers were loaded onto columns via syringes. 500 μl fractions are collected (flow rate=1 ml/minute). 500 μg of peptide (1 mg/ml, resuspended in EQ buffer) was added to each column and the flow through was collected for analysis. The columns were then washed with 3 CV of EQ buffer. Peptides are then eluted with a step gradient of 500, 625, 750, 875 mM NaCl in EQ buffer, 2 CV per each step. A final step of 3 CV of 1000 mM NaCl in EQ buffer was collected in 500 μl fractions. The A210 nm was measured using EQ and elution buffers as blanks.

[2] = system: B16-F1 melanoma cells; experiment: Subcutaneous B16 melanoma tumor growth in vivo; set-up: species or system mouse
Protocol: Because of the importance of the angiogenic process for tumorigenesis, miniproteins as described herein, were hypothesized to show good anti-tumor activity. The peptides of the invention were tested in an in vivo model of anti-tumor activity. This model compares the growth of subcutaneous B16 melanoma tumor in vivo either untreated or treated with various amount of miniproteins described in this application. This model is widely accepted in the art as a model to test the anti-tumor activity of compounds that inhibit tumor growth because they have anti-angiogenic activity.
Male C57BL/6 mice were obtained with a mean body weight of 20±2 g. Mouse B16-F1 melanoma cells were implanted subcutaneously (5×10^5 cell per animal). Peptides (formulated in water) were administered ip daily at the amount indicated starting the day after cells injection. In general, tumors became palpable around 9 days after injection of cells. Tumor were then measured every 2 days.

[3] = system: VEGF binding to its receptor; experiment: Inhibition of binding of radiolabeled VEGF to endothelial cells; conditions: 30 μM; for VEGF binding inhibition: FIG. 7 legend
Protocol: The activity of the peptides SEQ ID NO.: 1 and SEQ ID NO.: 2 in blocking the binding of radiolabeled VEGF to endothelial cells is shown in FIG. 7.
FIG. 7 illustrates the inhibition of VEGF binding to its receptor by two miniproteins wherein a heparin binding domain is linked to an integrin binding domain. […] Both peptides achieved an almost 100% inhibition at a concentration of 30 μM.

[4] = system: Human Umbilical Vein Endothelial Cells; experiment: bFGF-mediated survival/proliferation of human umbilical vein endothelial cells (WST1); assay type: cell-based; conditions: FIG. 6, 9, 10, 17
Protocol: (§1) The anti-angiogenic activities of the peptides were tested by measuring the level of inhibition of VEGF and bFGF mediated survival/proliferation of Bovine Retinal Endothelial Cells (BRE), Human Dermal Microvasculature Endothelial Cells, and Human Umbilical Vein Endothelial Cells, all of which are standard cell lines used to test anti-angiogenic compounds.
Human umbilical cord endothelial (HUVEC) cells were maintained in Cambrex EGM-2MV media. On day one, cells were starved overnight in 1% FBS in M200 media (Cascade Biologicals). The morning after, the media were replaced with serum-free media (control) or media containing 25 ng/ml of human VEGF165 and the various peptides to final concentrations as described.
(§2) In all cases, after 72 hours incubation, the amount of live cells in each well was measured with the WST1 assay (Roche).

[5] = system: Bovine Retinal Endothelial Cells (BRE); experiment: VEGF-mediated survival/proliferation of bovine retinal endothelial cells (WST1); assay type: cell-based; conditions: VEGF 25 ng/ml, 72 hours; for Inhibition of VEGF-mediated survival/proliferation: FIG. 4 and 5
Protocol: as §1
Bovine retinal endothelial (BRE) cells were maintained in Cambrex EG2 media. For non-adherent cell assays, on day one cells were starved for either 6 hours or overnight, then trypsinized and plated in 96-well plates in 100 μl of Optimem plus 1% fetal bovine serum (FBS). One hundred μl of Optimem plus 1% FBS was added to the wells containing, where appropriate, VEGF to a final concentration of 25 ng/ml, and the various peptides to final concentrations as described. For adherent cells, cells were plated in 96-well plates in complete media, allowed to adhere overnight, washed in starvation media (Optimem plus 1% FBS) and then starved during the day. At the end of the day, 100 μl of Optimem plus 1% FBS was added to the wells containing, where appropriate, VEGF to a final concentration of 25 ng/ml and the various peptides to final concentrations as described.
as §2

[6] = system: L1210 murine leukemia cells; experiment: L1210 murine leukemia intravenous model, survival; assay type: in vivo, mouse; conditions: dosed IP, FIG. 15a; for Survival: DBA/2 mice
Protocol: Antitumor activity of test peptides, administered intraperitoneally (IP), were evaluated against L1210 murine leukemia cells implanted intravenously (IV) in DBA/2 mice.
Studies generally consisted of randomly-assigned groups of 8 mice per group, which were inoculated IV with 1×10^5 cells per mouse from an in vivo leukemia cell line. In addition to groups tested with test peptides, studies usually included a vehicle-treated control group and a positive control group treated with an agent known to be active in the L1210 leukemia model. Starting one day after tumor inoculation (inoculation day defined as Day 0), mice were treated IP with either vehicle or test peptides in various schedules. Generally this consisted of treatment every other day for approximately 1 week (e.g., Days 1, 3, 5 and 7). A positive agent (e.g., cyclophosphamide) was usually given as a single IP injection on Day 1. All dosing solutions were prepared on each day of treatment. Survival was monitored daily and body weights were measured twice weekly. Anti-tumor activity was assessed by the increase in lifespan of the treated groups in comparison to the vehicle-treated control group. Studies with the L1210 leukemia model were limited to 30 days.

[7] = step gradient in 10 mM NaH2PO4 pH 7
[8] = 20 mg/kg daily IP, vs untreated controls, FIG. 12 and 14

Sequence: ATSLPPHSSQSPGGGPPAARGRRAARGRR (listed as Homo sapiens) [ST100,062]
- P (ANOVA) of tumor growth inhibition ([2]; 20 mg/kg daily IP, FIG. 12): > 0.05
- Inhibition of tumor growth [2, 8]: clearly inhibit tumor growth

Sequence: PYAGRGDSVVYGLGGGPGAARGRRAARGRR [ST100,033]
- inhibition of VEGF binding [3]: ~100%
- VEGF binding inhibition [3]: completely abolished VEGF binding

Sequence: RRGRRRGRRRGRRRGKKPSQSSHPPLSTA ([dR][dR]G[dR][dR][dR]G[dR][dR][dR]G[dR][dR][dR]G[dK][dK][dP][dS][dQ][dS][dS][dH][dP][dP][dL][dS][dT][dA]; listed as Homo sapiens) [ST100,093]
- Inhibition of bFGF-mediated survival [4]: more potent than similar peptides with weaker heparin binding domains

Sequence: ATSLPPHSSQSP (listed as Homo sapiens) [ST100,038]
- Concentration that completely abolished VEGF-induced increase in WST-1 value ([5]; FIG. 4): above 40 μM
- Inhibition of VEGF-mediated survival/proliferation [5]: caused the amount of WST-1 to decrease

Sequence: YDGRGDSVVYGLKKKAARGRRAARGRR [ST100,032]
- inhibition of VEGF binding [3]: ~100%
- VEGF binding inhibition [3]: completely abolished VEGF binding

Sequence: RLGYVVSDGRGDYPKKKRRGRAARRGRAA [ST100,065, middle rotated replaced version of ST100,061]
- heparin binding activity (comparison in words) [1]: bind less strongly than ST100,082
- [NaCl] for elution [1, 7]: 750 mM
- Survival [6]: statistically significant increases in survival
- mice (cured mice) that survived longer than 30 days [6]: Sixty to eighty

Sequence: RRGRAAKKKRRGRAAKKKPSQSSHPPLSTA (listed as Homo sapiens) [ST100,072]
- fraction number [1]: 26-27
- [NaCl] for elution [1, 7]: 1000 mM
- Inhibition of bFGF-mediated survival [4]: more potent in blocking bFGF stimulation

Sequence: RRGRAAKKKRRGRAAKKKRLGYVVSDGRGDYP [ST100,074]
- fraction number [1]: 27-28
- [NaCl] for elution [1, 7]: 1000 mM
- Inhibition of bFGF-mediated survival [4]: the most active in inhibiting bFGF stimulation
- Survival [6]: statistically significant increases in survival
- mice (cured mice) that survived longer than 30 days [6]: Sixty to eighty

Sequence: RRGRAARRGRAAKKKPSQSSHPPLSTA (listed as Homo sapiens) [ST100,068]
- Inhibition of tumor growth ([2]; 20 mg/kg and 40 mg/kg daily IP, FIG. 13): able to inhibit tumor growth
- [NaCl] for elution [1, 7]: 875 mM
- Inhibition of VEGF-mediated survival/proliferation [5]: VEGF stimulation was inhibited with increasing doses; also recorded: more potent in blocking VEGF stimulation

Continued, in another order:

- fraction number [1]: 26-27
- [NaCl] for elution [1, 7]: 1000 mM
Sequence: RKKAARARKKAARARKKAARRLGYVVSDGRGDYP (listed as Homo sapiens) [ST100,081]

- heparin binding activity (comparison in words) [1]: even greater increase in heparin binding
- fraction number [1]: 35-36
- [NaCl] for elution [1, 7]: 1500 mM
Sequence: RKGRRKGRRKGRRKGRRKGKK ([dR][dK]G[dR][dR][dK]G[dR][dR][dK]G[dR][dR][dK]G[dR][dR][dK]G[dK][dK]; listed as Homo sapiens) [ST100,087]

- heparin binding activity (comparison in words) [1]: even greater increase in heparin binding
- fraction number [1]: 34-35
- [NaCl] for elution ([1]; unit given as M): 1300 mM
Sequence: RRGRRRGRRRGRRRGKK (listed as Homo sapiens) [ST100,089]

- heparin binding activity (comparison in words) [1]: even greater increase in heparin binding
- fraction number [1]: 33-34
- [NaCl] for elution [1, 7]: 1300 mM
Sequence: RRQRRRGRRRQRRRGKK (listed as Homo sapiens) [ST100,090]

- fraction number [1]: 31-32
- [NaCl] for elution [1, 7]: 1100 mM
Sequence: RRGRARRGRARRGRARRGKK ([dR][dR]G[dR][dA][dR][dR]G[dR][dA][dR][dR]G[dR][dA][dR][dR]G[dK][dK]; listed as Homo sapiens) [ST100,085]

- [NaCl] for elution [1, 7]: 1100 mM
Sequence: RKRAARARKRAARARKRAARR (listed as Homo sapiens) [ST100,083]

- fraction number [1]: 26-27
- [NaCl] for elution [1, 7]: 1000 mM
Sequence: RRGRAAKKKRRGRAAKKK (listed as Homo sapiens) [ST100,082]

- fraction number [1]: 26-27
- [NaCl] for elution [1, 7]: 1000 mM
Sequence: RRGRAARRGRAARRGRAAKKKPSQSSHPPLSTA (listed as Homo sapiens) [ST100,073]
- Inhibition of tumor growth [2, 8]: able to inhibit tumor growth
- Inhibition of bFGF-mediated survival [4]: more potent in blocking bFGF stimulation; also recorded: the most active in inhibiting bFGF stimulation

- [NaCl] for elution [1, 7]: 1000 mM
Sequence: RAAKKRARAAKKRARAAKKRLGYVVSDGRGDYP (listed as Homo sapiens) [ST100,079]

From US20060172941A1, “Anti-angiogenic peptides and methods of use thereof” (priority 2004, published 2006)
